“Also recorded” adds a separate entry of the source.
What was measured:
[1] = test system: MCF7 breast cancer cells selected for resistance to Tamoxifen; assay: Cell viability by Trypan Blue, Tamoxifen resistant MCF7 cells; format: cell-based, human
Procedure: (§1) Parental MCF7 human breast cancer cells, or cells selected for resistance to Tamoxifen, were treated with 1 or 5 uM M2I-1. Tamoxifen resistant cells were also treated with both DOX and M2I-1. Cell viability was measured using Trypan Blue staining (3 rpts). B. Protein lysates were prepared from the cells used in A. The APC target HURP was measured using antibodies against HURP. C. Trypan Blue was used to measure viability of parental and DOX resistant OSW canine lymphoma cells pretreated with 1 or 5 μM M2I-1 (18 hrs), followed by 1 μM DOX (48 hrs). Parental cells were only treated with monotherapy (3 rpts). ND, no data. D. OSW matched cells treated with the APC activator M2I-1 were prepared for APC substrate westerns E. Quantification of western protein abundance (3 rpts).
(§2) Human MCF7 breast cancer cells selected for resistance to Tamoxifen were treated with the M2I-1 activator in culture.

[2] = test system: OSW dog lymphoma cells selected for chemotherapeutic resistance; assay: Cell viability by Trypan Blue, DOX resistant OSW cells; format: cell-based, canine; conditions: 1 or 5 μM 18 hrs then 1 μM DOX 48 hrs
Procedure: as §1, §2

[3] = test system: patient derived xenografted (PDX) tumor; assay: Patient derived xenograft (4-28 PDX) triple negative breast cancer mouse model; format: in vivo
Excerpt: A. In vivo study of M2I-1 impact on a human patient derived xenografted breast tumor (4-28 PDX). An increased dose of M2I-1 was given to mice harboring implanted 4-28 tumor fragments ([…] i.p. injection (treatment) versus mock (DMSO) day 1, with tumor size measured every other day. B. Western analysis of apoptosis (PARP cleavage—24 kDa band) and APC substrate abundance (Cyclin B) in liver and tumor of treated and control after sacrifice on Day 8.
(§3) A mouse model for growing patient derived breast tumor cells obtained from a patient with triple negative breast cancer was developed. This patient had developed resistance to Doxorubicin. Tumors growing in these mice grow rapidly. Mice growing the patient derived xenografted (PDX) tumor were injected with various amounts of M2I-1. […] Since the APC was activated in the canines tested in this study following treatment with metformin, it was asked if metformin can directly activate the APC. Reduced APC substrate Cyclin B levels following metformin treatment in human MCF7 breast cancer cells was observed, similar to that observed when MDF7 cells express the C43-4 plasmid (see below for more on this plasmid) (FIG. 21).

APC (substrate HURP) = assay: APC substrate westerns, Tamoxifen resistant MCF7 cells; format: cell-based, human
Procedure: as §1, §2

MDA-MB-231 cells = assay: Scratch assay, migration of MDA-MB-231 cells; format: cell-based, human
Procedure: A. An equal number of MDA-MB-231 TNBC cells were grown to confluence in 6 well plates. The cells were then treated with increasing doses of metformin (0, 1, 5 and 10 mM) and a scratch was made in the cell lawn creating a void. At the times shown the number of cell that migrated into the void were counted. The experiment was repeated twice. B. WT MDA-MB-231 cells and cells stably expressing the C43-4 plasmid were grown as in A. Control cells were left untreated, with other cells treated with the DMSO control, 1 uM DOX or 2.5 uM M2I-1. A void was created in the cell lawn and the number of cells that entered the void were scored as above. This experiment was repeated 4 times. This experiment was also repeated 4 times in an independently generated stable C43-4 cell line with similar results. The error of the mean is shown. C. WT and MDA-MB-231 cells stably expressing the C2-4B peptide plasmid were used for the scratch assay as described above. D. WT and MDA-MB-231 cells stably expressing the C13-3 peptide plasmid were used for the scratch assay as described above. The experiments in C and D were only performed once.
Assays using WT and C43-4 expressing cells have been done 4 times. Assays using C13-3 and C2-4B cells have only been conducted once. Metformin treated cells have been used twice. For scratch assays, a scratch is made down a confluent plate of cells, leaving a void. The number of cells that migrate back into the void over time is determined.

APC (substrate Cyclin B) = assay: Cyclin B protein levels in MCF7 cells; format: cell-based, human; conditions: MCF7, 48 hrs; 1 mM metformin or transient transfection of peptide plasmid
Procedure: MCF7 breast cancer cells were treated with 1 mM metformin or transiently transfected with an APC activating peptide (C43-4) for 48 hrs, then harvested for assessment of Cyclin B protein levels. Cyclin B is an APC target.
as §3

[4] = test system: multiple drug resistant breast cancer; conditions: cited from earlier work
drug resistant lymphoma = assay: Canine model of drug resistant lymphoma, metformin adjunct therapy; format: in vivo
Procedure: Enrolled companion canines that presented to the Western College of Veterinary Medicine in Saskatoon with lymphoma that had failed CHOP therapy were enrolled in the study. Canine lymphoma is very common, almost always results in a drug resistant form, and is treated identically in humans and canines.
Each week tumor tissue was received to use for western determination of MDR markers and RNA microarrays.
One canine (canine 6) entered remission after failing all other treatment options. RNA was sampled from the MDR tumor, during metformin treatment, during tumor shrinkage and remission and during relapse and microarray analysis was performed.

apc10Δ cells = assay: C43-4 mutant peptides, spot dilution under temperature and UV stress, apc10Δ cells; format: cell-based, yeast; conditions: glucose or galactose
Procedure: The cells were exposed to 5 sec of UV from a UV box prior to incubation.
Expression of the WT and mutant peptides have reduced activity in apc10Δ cells (FIG. 12).
(§4) • 1. Cells were cultured overnight in Trp^− 2% glucose media • 2. The growth of the cells was determined by measuring the optical density (OD) of the cells at 600 nm (OD600) • 3. Cells were diluted to OD600 of 1 with fresh culture media • 4. 100 ul of each culture was pipetted into a well of a 96 well plate • 5. 10 ul of the each starting culture was pipetted into 90 ul of water in 4 additional wells to make a 10-fold serial spot dilution • 6. 5 ul from each serial dilution was spotted onto plates containing standard growth media with either 2% glucose or 2% galactose using a multi-pipettor • 7. The plates were exposed to UV • 8. The plates were then placed at room temperature, 30, or 37° C. for 3-7 days • 9. The plates were scanned and saved as tiff files

wild type (WT) cells = assay: C43-4 mutant peptides, spot dilution under temperature and UV stress, WT cells; format: cell-based, yeast; conditions: low level expression on glucose
Procedure: The cells were exposed to 5 sec of UV from a UV box prior to incubation. The plus signs define growth compared to the empty vector control.
Residues 2, 7, 8, 10, 12 and 14 of peptide C43-4 are conserved with Htz1. All of these residues were mutated to alanine (FIG. 10). Peptides that contained mutations designed to determine which amino acids were required for function were generated. These mutant peptides were grown in wild type cells and in cells that had APC10 mutated, under temperature and UV stress conditions (FIGS. 10-12).
These cells were spot diluted on Trp^− plates and grown at the temperatures shown and/or exposed to ultraviolet (UV) irradiation (FIGS. 10-12). At low level expression on glucose, some of the mutations caused stress dependent phenotypes.
as §4, with “The plates were then placed at room temperature, 30, or 37° C. for 3-7 days • 9. The plates were scanned and saved as tiff files” left out

Apc10 = target: T1, Apc10 (Saccharomyces cerevisiae, UniProt P53068); assay: Yeast 2-hybrid (Y2H) assay, Apc10 bait; format: binding
T1 construct: expressed in transfected cells; host or cells: yeast Y2H cells
T1 sequence (P53068 1-250): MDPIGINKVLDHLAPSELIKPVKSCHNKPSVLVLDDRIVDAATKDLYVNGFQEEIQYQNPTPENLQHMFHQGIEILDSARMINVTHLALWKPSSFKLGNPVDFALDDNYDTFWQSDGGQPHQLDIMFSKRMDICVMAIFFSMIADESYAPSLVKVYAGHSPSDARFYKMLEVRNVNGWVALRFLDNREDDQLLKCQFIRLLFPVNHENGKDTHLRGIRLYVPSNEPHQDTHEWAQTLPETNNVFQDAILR
Procedure: The reverse genetic screen utilized a yeast 2-hybrid (Y2H) protocol that selected for peptides that bound to the APC subunits Apc5 or Apc10 (see FIG. 8 for APC structure), to assess whether peptide-binding might modify APC function. Peptides that bound APC subunits were then assayed for those that suppressed APC mutant defects.
A library of random small peptides were cloned into a Thioredoxin (Trx) scaffold (see FIG. 9 for Trx-peptide structure) and expressed from a galactose-inducible Y2H prey vector in cells expressing the Apc10 bait vector (the modified Apc10 is still part of the complete APC complex). Six peptides that reproducibly interacted with the Apc10 bait construct in Y2H assays were identified (FIG. 1A) and were examined further. Cells will only grow in this assay if the peptide interacts with Apc5 or Apc10.
To identify peptides that bound to either Apc5 or Apc10 proteins using a yeast 2-hybrid (Y2H) screen, random small peptides were cloned into the TrxA scaffold (library provided by R. Geyer; FIG. 9) and expressed from a galactose-inducible Y2H prey vector in cells harboring either the APC5 or APC10 genes cloned into the Y2H bait vectors (APC5/APC10 bait constructs complement APC mutant defects).
Over 100 peptides that bound either Apc5 or Apc10 were recovered from millions screened. Six peptides that reproducibly interacted with the Apc5 or Apc10 bait construct in Y2H assays were examined further. Vectors expressing these 6 peptides were transformed into WT or APC mutant cells and assessed for ts growth.

Row | Molecule | cell killing / toxicity in combination with chemotherapy (DOX) ([1]; Tamoxifen resistant MCF7) | growth / toxicity of activator alone ([1]; Tamoxifen resistant MCF7, 1 or 5 uM, 18 hrs) | cell killing by chemotherapy only in presence of activator [2] | tumor growth ([3]; PDX TNBC in mice, i.p. injection, various amounts) | markers of APC substrates in the tumor ([3]; western, Cyclin B, Day 8) | levels of APC substrates (APC (substrate HURP)) | metastatic potential / in vitro migration (MDA-MB-231 cells) | APC substrate Cyclin B protein levels (APC (substrate Cyclin B)) | multiple drug resistant breast cancer in vitro [4] | APC substrate RNA levels (drug resistant lymphoma; canine 6, microarray) | markers of multiple drug resistance (drug resistant lymphoma; canine tumor tissue, westerns) | remission (drug resistant lymphoma; one canine (canine 6)) | activity / toxicity of peptide in apc10Δ cells (apc10Δ cells) | stress resistance (growth compared to empty vector) (wild type (WT) cells) | binds Apc10 in a yeast 2 hybrid assay (Apc10)
1 | CC(C)CN(CC(C)C)c1ccc(C=C2C(=O)NC(=S)NC2=O)cc1[N+](=O)[O-] [M2I-1, Mad2 Inhibitor-1] | only in the presence of M2I-1 were cells killed; also recorded: enhances toxicity | did not impair the growth; also recorded: not toxic | observed | stalled in these cells in a dose-dependent manner | positive for APC activation | reduced the levels of several APC substrates tested | inhibit the in vitro migration |  |  |  |  |  |  |  | 
2 | CN(C)C(=N)N=C(N)N [metformin] |  |  |  |  |  |  | blocked | Reduced | prevents and reverses | reduced APC substrate RNA levels | reverse markers of multiple drug resistance | induced remission |  |  | 
3 | NGSSHNDARVRRLTLISRLC [C43-4-3, alanine at position 8 of C43-4] |  |  |  |  |  |  |  |  |  |  |  |  | remained toxic | increased stress resistance further | binds Apc10

Reference: patent publication US11851459B2, “Methods and uses of modulators of anaphase promoting complex (APC) activity for treating cancer” (University of Saskatchewan, priority 2018, dated 2023)
